Reference: patent US6251950A, “Aliphatic propargylamines as cellular rescue agents” (University of Saskatchewan, priority 1998, dated 2001)
Where a name gives a salt, the structure may show the parent alone. Read-outs that look alike come from different tables or passages of the source.

How the values were obtained:
[1] = tested on: pyramidal neurons in the hippocampus (CA1 neurons); experiment: Hypoxia/ischaemia model, CA1 neuron survival; type: in vivo, rat; conditions: for response vs control in vivo at 0.1 µmol/kg: Rattus norvegicus, Neuron, sc, read-out: Percentage survival of CA1 neurones, of vehicle treated controls (Table 4); for mean survival of CA1 neurons, percentage of vehicle treated controls (Table 2): **P < 0.01
Source text: This model produces selective, unilateral lesioning of the pyramidal neurons in the hippocampus which involves neuronal apoptosis.
Values are the mean survival of CA1 neurons expressed as a percentage of
vehicle treated controls (vehicle = 100%) ± sem (n = 6 - 10).

[2] = molecular target: T1, rat liver mitochondrial monoamine oxidase B (Rattus norvegicus, UniProt P19643); experiment: biochemical; type: biochemical; conditions: for MAO-B inhibitory activity / Comparison to most effective MAO-B inhibitor in group: in vitro; for Comparison to most effective MAO-B inhibitor in group: relative to most effective inhibitor in group; for IC50: substrate PE (β-phenylethylamine) 1.9 × 10^-5 M, average of at least 2 independent triplicate experiments
T1 sequence (P19643 1-520): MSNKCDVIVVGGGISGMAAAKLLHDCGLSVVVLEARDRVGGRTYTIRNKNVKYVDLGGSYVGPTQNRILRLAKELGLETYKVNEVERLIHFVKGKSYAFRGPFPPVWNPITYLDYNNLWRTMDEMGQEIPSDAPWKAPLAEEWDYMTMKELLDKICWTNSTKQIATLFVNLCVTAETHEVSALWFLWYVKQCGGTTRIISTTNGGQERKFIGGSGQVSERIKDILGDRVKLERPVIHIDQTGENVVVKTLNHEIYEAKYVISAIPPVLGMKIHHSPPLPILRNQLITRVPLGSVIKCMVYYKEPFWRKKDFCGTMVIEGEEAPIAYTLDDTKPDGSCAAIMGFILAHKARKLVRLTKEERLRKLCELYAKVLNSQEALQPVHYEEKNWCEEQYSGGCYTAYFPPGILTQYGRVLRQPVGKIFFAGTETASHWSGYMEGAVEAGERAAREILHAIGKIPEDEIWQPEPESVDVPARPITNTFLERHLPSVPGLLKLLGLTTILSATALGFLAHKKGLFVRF
Protocol: Enzyme activity was assessed using a radiometric method as previously described (Yu et al, 1992).

[3] = tested on: cerebellar granule cells (CGC); experiment: in vitro; type: cell-based, Wistar rat; conditions: for blocking of Ara C induced apoptosis: 10^-7 M (FIG. 1c); for Percent Apoptotic Nuclei (Ara C + R-2HMP + compound): antagonism, Ara C 100 μM + R-2HMP 100 nM + S-enantiomer 10 μM, #P < 0.05 compared to Ara C + R-2HMP; for Percent Apoptotic Nuclei (Ara C + R-2HMP + compound) / Percent Apoptotic Nuclei (Control + compound) / Percent Apoptotic Nuclei (Ara C + compound): mean ± sem of 4 cultures; for Percent Apoptotic Nuclei (Control + compound): no Ara C, control 4.2 ± 0.3; for Percent Apoptotic Nuclei (Control + compound) / Percent Apoptotic Nuclei (Ara C + compound): R-2HMP 100 nM, S-2HMP 10 μM, S-2HPA 10 μM; for Percent Apoptotic Nuclei (Ara C + compound): with Ara C 100 μM, *P < 0.05 compared to Ara C alone
Source text: Cultures of cerebellar granule cells (CGC) can be induced into apoptosis by the addition of a high concentration of cytosine arabinoside (Ara C) (Dessi et al., 1995) and it has been shown that this is a p53 dependent apoptosis (Enokido et al, 1996). We have measured the antiapoptotic effect of N-(2-heptyl)propargylamine (2HPA) using this system and compared the results to those obtained with previously known aliphatic methyl propargylamines and deprenyl.
Cultures of CGC were obtained from 6-8 day old Wistar rat pups. Cultures were grown on glass in 35 mm petri dishes for 3 days and then used for experiments. 20 μl aliquots of drug solutions (Ara C, anti-apoptotic drugs, drug vehicles) were added to the medium of the cultures. 24 Hours later the cultures were fixed with FAM, and stained with bis-benzamide. Normal and apoptotic nuclei were counted to a total of 90-120 cells per culture. […] Concentrations in excess of 150 μM caused detachment of the cultures.
Compounds were added at the following concentrations: Ara C, 100 μM,

[4] = 0.1 μmol/kg, s.c., vehicle = 100%, ± sem (n = 6-10), *P < 0.05, **P < 0.01
[5] = 0.1 μmol/kg, s.c., vehicle = 100%, ± sem (n = 6-10)

C#CCN(C)C [DMP, N,N-dimethylpropargylamine]
response vs control in vivo at 0.1 µmol/kg [1]: 117 ± 28%

C#CCN(C)CC [EMP, N-ethyl-N-methylpropargylamine]
response vs control in vivo at 0.1 µmol/kg [1, 4]: 82 ± 19%

C#CCNCC [EPA, N-ethylpropargylamine]
response vs control in vivo at 0.1 µmol/kg [1, 4]: 164 ± 18%

C#CCN(C)CCCCCC [Example 1HxMP, N-(1-hexyl)-N-methylpropargylamine]
response vs control in vivo at 0.1 µmol/kg [1, 4]: 215 ± 24%

C#CCNCCCCCC [Example 1HxPA, N-1-Hexylpropargylamine hydrochloride]
response vs control in vivo at 0.1 µmol/kg [1, 4]: 179 ± 23%

C#CCN(C)CCC [Example 1PrMP, N-(1-propyl)-N-methylpropargylamine]
response vs control in vivo at 0.1 µmol/kg [1, 4]: 127 ± 31%
activity in the hypoxia/ischaemia model ([1]; s.c.): inactive

C#CCNCCC.Cl [Example 1PrPA, N-1-Propylpropargylamine hydrochloride]
response vs control in vivo at 0.1 µmol/kg [1, 4]: 174 ± 29%
activity in the hypoxia/ischaemia model ([1]; s.c.): active

C#CCNC(C)CC (centres unmarked) [Example 2BuPA, N-(2-butyl)-propargylamine]
MAO-B inhibitory activity [2]: substantially reduced in comparison to those of the N-methyl compounds

C#CCNC(C)CCCCC (centres unmarked) [Example 2HPA, N-(2-heptyl)-propargylamine]
MAO-B inhibitory activity [2]: substantially reduced in comparison to those of the N-methyl compounds

C#CCNC(C)CCCC (centres unmarked) [Example 2HxPA, N-(2-hexyl)-propargylamines]
MAO-B inhibitory activity [2]: substantially reduced in comparison to those of the N-methyl compounds

C#CCN(C)C(C)C [Example 2PrMP, N-(2-propyl)-N-methylpropargylamine]
response vs control in vivo at 0.1 µmol/kg [1, 4]: 255 ± 43%
activity in the hypoxia/ischaemia model ([1]; s.c.): slightly lower than those of the optimum branched chain compounds

C#CCNC(C)C.Cl [Example 2PrPA, N-2-Propylpropargylamine hydrochloride]
response vs control in vivo at 0.1 µmol/kg [1, 4]: 175 ± 20%
activity in the hypoxia/ischaemia model ([1]; s.c.): slightly lower than those of the optimum branched chain compounds

C#CCN(C)[C@H](C)CC [Example R-2BuMP, (R)-N-(2-butyl)-N-methylpropargylamine]
response vs control in vivo at 0.1 µmol/kg [1]: 297 ± 52%

C#CCN[C@H](C)CC.Cl [Example R-2BuPA, (R)-N-2-Butylpropargylamine hydrochloride]
Comparison to most effective MAO-B inhibitor in group [2]: 1.4%
IC50 [2]: 70 µM
response vs control in vivo at 0.1 µmol/kg [1, 4]: 263 ± 37%

CCCCC[C@@H](C)N [Example R-2HA, (R)-(2-heptyl)amine]
mean survival of CA1 neurons, percentage of vehicle treated controls (Table 2) [1, 5]: 90 ± 30%
activity in the hypoxia/ischaemia model ([1]; s.c.): neither increase nor decrease the CA1 neuronal death

CCCCC[C@@H](C)NC [Example R-2HMA, (R)-N-(2-heptyl)-methylamine]
mean survival of CA1 neurons, percentage of vehicle treated controls (Table 2) [1, 5]: 85 ± 26%
activity in the hypoxia/ischaemia model ([1]; s.c.): neither increase nor decrease the CA1 neuronal death

C#CCN(C)[C@H](C)CCCC [Example R-2HxMP, N-(2-hexyl)-N-methyl-propargylamine]
Comparison to most effective MAO-B inhibitor in group [2]: 100%
IC50 [2]: 0.03 µM

C#CCN[C@H](C)CCCC.Cl [Example R-2HxPA, (R)-N-2-Hexylpropargylamine hydrochloride]
Comparison to most effective MAO-B inhibitor in group [2]: 0.8%
IC50 [2]: 4 µM

C#CCN(C)[C@@H](C)CC [Example S-2BuMP, (S)-N-(2-butyl)-N-methylpropargylamine]
response vs control in vivo at 0.1 µmol/kg [1]: 139 ± 38%

C#CCN[C@@H](C)CC [Example S-2BuPA, (S)-N-(2-butyl)-propargylamine]
Comparison to most effective MAO-B inhibitor in group [2]: 0.2%
IC50 [2]: 500 µM

C#CCN(C)[C@@H](C)CCCCC [Example S-2HMP, (S)-N-(2-heptyl)-N-methyl-propargylamine]
blocking of Ara C induced apoptosis [3]: did not
Percent Apoptotic Nuclei (Ara C + R-2HMP + compound) [3]: 15.1 ± 0.9%
antagonism of the anti-apoptotic action of the R-enantiomers ([3]; in words): antagonists of the anti-apoptotic action of the R-enantiomers
Percent Apoptotic Nuclei (Control + compound) [3]: 5.0 ± 0.6%
Percent Apoptotic Nuclei (Ara C + compound) [3]: 13.7 ± 1.1%
Comparison to most effective MAO-B inhibitor in group [2]: 0.8%
IC50 [2]: 4 µM
mean survival of CA1 neurons, percentage of vehicle treated controls (Table 2) [1, 5]: 112 ± 23%
response vs control in vivo at 0.1 µmol/kg [1, 4]: 112 ± 23%

C#CCN[C@@H](C)CCCCC [Example S-2HPA, (S)-N-(2-heptyl)-propargylamine]
Percent Apoptotic Nuclei (Ara C + R-2HMP + compound) [3]: 13.8 ± 1.2%
antagonism of the anti-apoptotic action of the R-enantiomers ([3]; in words): antagonists of the anti-apoptotic action of the R-enantiomers
anti-apoptotic effect ([3]; in words): does not have an anti-apoptotic effect
Percent Apoptotic Nuclei (Control + compound) [3]: 4.7 ± 0.7%
Percent Apoptotic Nuclei (Ara C + compound) [3]: 14.2 ± 0.9%
Comparison to most effective MAO-B inhibitor in group [2]: 0.1%
IC50 [2]: 30 µM
mean survival of CA1 neurons, percentage of vehicle treated controls (Table 2) [1, 5]: 131 ± 19%
response vs control in vivo at 0.1 µmol/kg [1, 4]: 131 ± 19%

C#CCN(C)[C@@H](C)CCCC [Example S-2HxMP, N-(2-hexyl)-N-methyl-propargylamine]
Comparison to most effective MAO-B inhibitor in group [2]: 4.3%
IC50 [2]: 0.7 µM

C#CCNC [MPA, N-methylpropargylamine]
response vs control in vivo at 0.1 µmol/kg [1]: 78 ± 31%

C#CCN(C)[C@@H](C)Cc1ccccc1 [S-deprenyl]
blocking of Ara C induced apoptosis [3]: did not
